Measured values from patent US4163839A, “Isocoformycin and a process for the production thereof” (priority 1977, dated 1979).
Like-named read-outs stand apart in the source and are kept apart here.

Assays:
[1] = target: T1, adenosine deaminase from calf intestine (Bos taurus, UniProt P56658); assay: Inhibition of adenosine deaminase from calf intestine (decrease in optical density); type: biochemical; details: at 25° C., read-out: ID50 (the source's name)
T1 construct: from tissue; host or cells: calf intestine
T1 sequence (P56658 1-363): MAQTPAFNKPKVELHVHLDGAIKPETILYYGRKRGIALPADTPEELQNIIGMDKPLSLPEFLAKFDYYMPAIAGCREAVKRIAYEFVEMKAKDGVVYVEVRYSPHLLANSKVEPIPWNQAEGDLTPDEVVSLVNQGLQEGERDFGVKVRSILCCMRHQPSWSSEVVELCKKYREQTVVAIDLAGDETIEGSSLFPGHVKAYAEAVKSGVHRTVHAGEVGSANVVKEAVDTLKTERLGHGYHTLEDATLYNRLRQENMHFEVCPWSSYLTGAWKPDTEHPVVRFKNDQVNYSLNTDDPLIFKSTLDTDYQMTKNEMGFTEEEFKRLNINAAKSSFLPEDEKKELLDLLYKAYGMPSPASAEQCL
Description: (§1) The novel compound of the present invention, isocoformycin (III), is useful because of its ability to inhibit strongly the deamination of formycin, adenine arabinoside and cordycepin by the adenosine deaminase present in mammals and birds. The inhibitory activities of isocoformycin on adenosine deaminase were measured using formycin and adenosine as the substrate. Three ml of a solution of adenosine or formycin in 0.05 M phosphate buffer (12 mg/ml, pH 7.5 and 6.5, respectively) was put in a quartz cell of 1 cm in length and 0.1 ml of a solution containing a known amount of isocoformycin in distilled water was added. The reaction was started by addition of 0.1 ml of enzyme solution (adenosine deaminase from calf intestine: 1 mg/ml of 0.025 M ammonium acetate or Takadiastase-Y: 4 mg/ml of distilled water) and the decreases for 2 minutes in optical densities at 265 nm in the case of adenosine or 295 nm in the case of formycin were recorded on Beckmann spectrophotometer equipped with the Gilford recorder. The concentration of the inhibitor for 50% inhibition (ID50) was calculated from the difference of the optical densities as shown in Table 1.

Takadiastase-Y = assay: Inhibition of Takadiastase-Y deamination (decrease in optical density); type: biochemical; details: at 45° C., 2 min, read-out: ID50 (the source's name)
Description: as §1

[2] = system: mouse leukemia L-1210 cells; assay: Inhibition of multiplication of L-1210 cells in tissue culture (Lowry method); type: cell-based
Source text: The isocoformycin is also useful as a strong synergist of formcyin and adenine arabinoside for their antitumor activities. […] The inhibitory effect of formycin with or without isocoformycin on multiplication of the mouse leukemia L-1210 cells measured by the Lowry method [O. H. Lowry, N. J. Rosenbrough, A. L. Farr and R. J. Randall, J. Biol. Chem., 193, 265 (1951)] is directed in Table 2.

[3] = system: mouse leukemia L-1210 cells; assay: Survival period of mice implanted with L-1210 cells; type: in vivo
Description: Each dose was injected i.p. 2 hrs. after implantation of 10^5 L-1210 cells once a day for 10 days.
"S. period" is the mean survival time in days.
"T/C" is the ratio of the mean survival time of the treated (with drug) animals versus the control's (no drug) and is expressed as a percentage.

Escherichia coli NIHJ = assay: Disc method on nutrient agar against Escherichia coli NIHJ; type: cell-based; details: for Diameter (inhibition diameter): disc 8 mm, medium containing formycin 50 μg/ml
[4] = isocoformycin 1.5 μg/m i.p. once a day for 10 days, without formycin
[5] = isocoformycin 1.5 μg/m with formycin 50 μg/m, i.p. once a day for 10 days
[6] = isocoformycin 3.1 μg/m i.p. once a day for 10 days, without formycin
[7] = isocoformycin 3.1 μg/m with formycin 50 μg/m, i.p. once a day for 10 days
[8] = isocoformycin 6.2 μg/m i.p. once a day for 10 days, without formycin
[9] = isocoformycin 6.2 μg/m with formycin 50 μg/m, i.p. once a day for 10 days
[10] = isocoformycin 12.5 μg/m i.p. once a day for 10 days, without formycin
[11] = isocoformycin 12.5 μg/m with formycin 50 μg/m, i.p. once a day for 10 days
[12] = isocoformycin 25 μg/m i.p. once a day for 10 days, without formycin
[13] = isocoformycin 25 μg/m with formycin 50 μg/m, i.p. once a day for 10 days
[14] = isocoformycin 50 μg/m i.p. once a day for 10 days, without formycin
[15] = isocoformycin 50 μg/m with formycin 50 μg/m, i.p. once a day for 10 days
[16] = formycin 50 μg/m i.p. once a day for 10 days, isocoformycin 0

For `OCC1NC=Nc2c1ncn2[C@@H]1O[C@H](CO)[C@@H](O)[C@H]1O` (stereo partly drawn) [9-β-D-ribofuranosyl-6-hydroxymethyl-1,6-dihydropurine, reference compound], the IC50 ([1]; substrate adenosine, pH 7.5) was 5800 nM, the IC50 ([1]; substrate formycin, pH 6.5) was 2600 nM and the IC50 (Takadiastase-Y; substrate adenosine, pH 7.5) was 280 µM. For the same compound, the IC50 (Takadiastase-Y; substrate formycin, pH 6.5) was 200 µM.

In the case of `OC[C@H]1O[C@@H](n2cnc3c2N=CNC(O)C3)[C@H](O)[C@@H]1O` (stereo partly drawn) [Isocoformycin, 3-β-D-ribofuranosyl-3,6,7,8-tetrahydroimidazo[4,5-d][1,3]-diazepin-7-ol], the IC50 ([1]; substrate adenosine, pH 7.5) is reported as 86 nM, the IC50 ([1]; substrate formycin, pH 6.5) is reported as 35 nM and the IC50 (Takadiastase-Y; substrate adenosine, pH 7.5) is reported as 1.1 µM. For the same compound, the IC50 (Takadiastase-Y; substrate formycin, pH 6.5) was 2 µM, the inhibition at 0.2 µg/mL ([2]; Mus musculus, L1210, isocoformycin 0.20 μg/ml, formycin 0.0, read-out: Inhibition (%)) was 0% and the inhibition at 0.5 µg/mL ([2]; Mus musculus, L1210, isocoformycin 0.50 μg/ml, formycin 0.0) was -4%. For the same compound, the “Inhibition (%)” value ([2]; isocoformycin 0.20 μg/ml with formycin 0.20 μg/ml) was 42%, the “Inhibition (%)” value ([2]; isocoformycin 0.50 μg/ml with formycin 0.20 μg/ml) was 55% and the “synergistic effect with formycin in the inhibition of cell multiplication” value ([2]; tissue cultures, with formycin) was “strong synergistic effect”. The “prolongation in the survival period” value ([3]; formycin combined with isocoformycin intraperitoneally) was “marked prolongation”, the T/C % [3, 4] was 93% and the “s.period (mean survival time)” value [3, 4] was 8.0 days. For the same compound, the T/C % [3, 5] was 145%, the “s.period (mean survival time)” value [3, 5] was 12.5 days and the T/C % [3, 6] was 105%. The “s.period (mean survival time)” value [3, 6] was 9.0 days, the T/C % [3, 7] was 163% and the “s.period (mean survival time)” value [3, 7] was 14.0 days. For the same compound, the T/C % [3, 8] was 99%, the “s.period (mean survival time)” value [3, 8] was 9.0 days and the T/C % [3, 9] was 140%. The “s.period (mean survival time)” value [3, 9] was 12.0 days, the T/C % [3, 10] was 116% and the “s.period (mean survival time)” value [3, 10] was 8.5 days. The T/C % [3, 11] was 163%, the “s.period (mean survival time)” value [3, 11] was 14.0 days and the T/C % [3, 12] was 93%. For the same compound, the “s.period (mean survival time)” value [3, 12] was 10.0 days, the T/C % [3, 13] was 174% and the “s.period (mean survival time)” value [3, 13] was 15.0 days. For the same compound, the T/C % [3, 14] was 93%, the “s.period (mean survival time)” value [3, 14] was 8.0 days and the T/C % [3, 15] was 174%. The “s.period (mean survival time)” value [3, 15] was 15.0 days, the “Diameter (inhibition diameter)” value (Escherichia coli NIHJ; isocoformycin 2.5 μg/ml) was 22.0 mm and the “Diameter (inhibition diameter)” value (Escherichia coli NIHJ; isocoformycin 10 μg/ml) was 25.0 mm. The “Diameter (inhibition diameter)” value (Escherichia coli NIHJ; isocoformycin 40 μg/ml) was 32.0 mm, the “Diameter (inhibition diameter)” value (Escherichia coli NIHJ; isocoformycin 200 μg/ml) was 36.0 mm and the “inhibitory activity against Escherichia coli NIHJ” value (Escherichia coli NIHJ; without formycin, isocoformycin 2 mg/ml) was “no inhibitory activity”.

`Nc1ncnc2c([C@@H]3O[C@H](CO)[C@@H](O)[C@H]3O)[nH]nc12` [Formycin, formycin] was tested, and the inhibition at 0.2 µg/mL ([2]; Mus musculus, L1210) was 8%, the T/C % [3, 16] was 122% and the “s.period (mean survival time)” value [3, 16] was 10.5 days.
